Measurements published in patent US10604481B2, “(Thio, oxo and seleno) semicarbazone complexes with zinc and their use for treating cancer” (RUTGERS, THE STATE UNIVERSITY OF NEW JERSEY, priority 2015, dated 2020).

How the values were obtained:
[1] = Mouse survival, daily IP administration (Example 13); assay type: in vivo; details: mice, ZN1 5.6 mg/kg vs ZMC1 5 mg/kg IP daily, FIG. 5
[2] = Liposome import assay (RhodZin-3 in DOPC liposomes); details: for transport of Zn2+ into liposomes (rate of RZ-3 fluorescence increase): external [Zn2+]free 10 μM
Experimental: Zn^2+ alone was unable to permeate the liposomal membrane as indicated by the lack of RZ-3 fluorescence increase.
It can function as an ionophore in conditions of the liposome experiments where external [Zn^2+]free was 10 μM. However, in complete media containing 10% fetal bovine serum (FBS), Zn^2+-binding proteins from the serum (e.g. albumin) necessarily compete for Zn^2+ with any putative MC, making the effective [Zn^2+]free much lower than [Zn^2+]total.
DOPC-liposomes were prepared by film rehydration and extrusion followed by gel filtration and diluted to an OD600=0.06 in buffer. The size distribution of the liposomes was determined by dynamic light scattering (DLS) using a Malvern Zetasizer Nano ZS. Fluorescence measurements were taken on a Horiba Fluoromax-4 spectrofluorimeter in a 5×5 mm quartz cuvette with λex/λem=550/572 nm for RZ-3 and 490/515 nm for calcein. Initial Zn^2+ import/export was quantified by fitting the first 10-30 s of data after each treatment to a line and converted to units of flux using the following Eqn 1:
[formula] where Ji is the initial flux, ΔF/Δt is the slope of the fit line, Fmax is RZ-3 fluorescence in the presence of saturating Zn^2+ and 1% TritonX-100, Fmin is RZ-3 fluorescence in the presence of excess EDTA and 1% TritonX-100, [RZ3] is the concentration of encapsulated RZ-3, and SA/Vol is the surface area to volume ratio calculated assuming hollow spheres of the mean diameter determined by DLS. Intracellular [Zn^2+]free Imaging

[3] = system: H1299 (p53-null); experiment: Three day cell growth inhibition assay, H1299; assay type: cell-based, human; details: FIG. 2
[4] = system: H460 (p53-WT); experiment: Three day cell growth inhibition assay, H460; assay type: cell-based, human; details: H460 (p53 wildtype), FIG. 2
[5] = system: HEK293 (non-cancer, p53-WT) cells; experiment: Intracellular [Zn2+]free imaging with FluoZin-3-AM, HEK293; assay type: cell-based; details: for increase of intracellular [Zn2+]free (FZ3 fluorescence): HEK293, complete media
Experimental: To minimize the potential for Zn^2+ contamination and contributions from poorly defined elements in complete media (e.g. FBS), cells were treated and imaged in Ca^2+ and Mg^2+-free Earle's Balanced Salt Solution supplemented with 10 mM HEPES pH 7.4 (EBSS/H (−)Ca/Mg). Excess ZnCl2 with the Zn^2+ ionophore pyrithione (PYR) was used as a positive control. Excess membrane-permeable Zn^2+ chelator N,N,N′,N′-tetrakis(2-pyridylmethyl)ethane-1,2-diamine (TPEN) was used as a negative control.
To normalize for differential dye loading, cells were then sequentially treated with excess PYR/ZnCl2, imaged, treated with TPEN, and imaged again. PYR/ZnCl2 and TPEN served to saturate and apoize the intracellular FZ3, respectively.
TOV112D or HEK293 cells (40,000 cells/well) were plated on either 8-well BD Falcon chambered culture slides (Corning Life Sciences) or 8-chambered #1.5 Nunc Lab-Tek II chambered coverglasses (Thermo Scientific) treated with poly-L-lysine. After 48 h, cells were washed 2×5 m in serum-free media and incubated with 1 μM FZ3-AM for 40 m at 37° C. Cells were then washed 2×5 m in either EBSS/H (−)Ca/Mg or phenol-red free DMEM+10% FBS containing the indicated treatments for 20 m before imaging. For nuclear colocalization, 1 μg/mL Hoechst 33342 was also included. Cells were imaged using a Zeiss LSM510 META NLO confocal microscope equipped with 37° C. environmental control chamber. FZ3 and Hoechst 33342 were excited at 488 nm (argon laser) and 790 nm (Chameleon Ti:sapphire laser), respectively. To determine the kinetics of fluorescence change, each background-subtracted image in the time-lapse series was integrated in ImageJ and normalized to the integrated fluorescence of the first frame after treatment. For quantification of intracellular [Zn^2+]free, each cell was analyzed in the treated, 50 μM PYR/ZnCl2 (1:1), and 100 μM TPEN images by taking the mean fluorescence of an ROI inside the cell subtracted by an ROI immediately outside the cell measured in ImageJ. The [Zn^2+]free for each cell was then calculated by Eqn 2:
[formula] […] To minimize the effects of outliers the lowest and highest 5% of cells in each series were rejected, and the remaining values averaged to give the value from that experiment. The number of cells analyzed in each trial ranged from 54-163. For nuclear colocalization, treated, PYR/ZnCl2, and TPEN treated images costained with Hoechst 33342 were aligned and each pixel subjected to Eqn. 2 in MATLAB (MathWorks).

[Zn(ZMC1)2] [Compound 12]
potency in vivo (survival) relative to monomer ZMC1 [1]: greater potency

C/C(=N\NC(=S)N1CCC1)c1ccccn1 [Compound 6, (E)-N′-(1-(pyridin-2-yl)ethylidene)azetidine-1-carbothiohydrazide]
Zn2+ export from liposomes (RZ-3 fluorescence) ([2]; excess EDTA outside the liposomes): time dependent decrease in RZ-3 fluorescence
transport of Zn2+ into liposomes (rate of RZ-3 fluorescence increase) [2]: dose-dependent increase
cell growth inhibition (cell killing) [3]: undisturbed
cell growth inhibition (cell killing) [4]: undisturbed
t1/2 of intracellular [Zn2+]free increase ([5]; HEK293, ZMC1 and ZnCl2, EBSS/H (−)Ca/Mg, mean±SD, n=4): 2.07 ± 0.333 min
increase of intracellular [Zn2+]free (FZ3 fluorescence) [5]: increased intracellular [Zn^2+]free

C/C(=N\NC(=O)N1CCC1)c1ccccn1 [Compound 10, (E)-N′-(1-(pyridin-2-yl)ethylidene)azetidine-1-carbohydrazide]
transport of Zn2+ into liposomes (rate of RZ-3 fluorescence increase) [2]: shuttled Zn^2+ into the liposomes
increase of intracellular [Zn2+]free (FZ3 fluorescence) [5]: did not

O=C(O)CN(CC(=O)O)CC(=O)O [NTA, reference compound]
transport of Zn2+ into liposomes (rate of RZ-3 fluorescence increase) [2]: did not
increase of intracellular [Zn2+]free (FZ3 fluorescence) [5]: did not
